Measured values from patent US11458146B2, “Compositions and methods for the treatment of myelin related and inflammation related diseases or disorders” (Duke University, priority 2017, dated 2022).
Entries after “also recorded” stand apart in the source; their conditions may differ.

Legend:
[1] = test system: naïve CD4+ T cells; test: TH17 polarization of naïve CD4+ T cells in vitro (flow cytometry, IL-17 production); format: cell-based, rodent; conditions: for cells polarized into the TH17 population: control cells 7.8%; for TH17 polarization (in words, FIG. 8): flow cytometry
Method: Naïve CD4 T cells were isolated from rodent spleen tissue using CD4 magnetic beads. CD4+ lymphocytes were cultured on plates coated with anti-CD3 antibody and anti-CD28 antibodies in the presence of rTGFb, rIL-6, and rIL-23 for 5 days. Four hours prior to flow cytometry analysis, the cells were stimulated with PMA, ionomycin, and Brefeldin A. The cells were then analyzed for IL-17 production (FIG. 8, wherein CD4+ T cell culture in the presence of CD3/CD28-coated beads with IMDM media containing rTGFβ (4 ng/ml), rIL-6 (20 ng/ml), rIL-23 (50 ng/ml), anti-IL-4 Ab, and anti-IFNg Ab with or without GW or HC for 5 days. PMA (50 ng/ml), Ionomycin (500 ng/ml) for […], and Brefeldin A (10 μg/ml) for last 3 h)). 7.8% of the control cells polarized into the TH17 population. The LXR agonist GW3965 prevented TH17 polarization (2.6%).

[2] = test system: Primary neural stem cells; test: oligodendrocyte differentiation from neural stem cells, western blot for CNPase and MBP; format: cell-based; conditions: 1 μm and 0.5 μm for five days, then differentiation for 18 days
Method: FIG. 5 is a western blot analysis. Stem cells were treated with oxysterols at doses indicated for 5 days then allowed to differentiate for 18 days. Protein lysates were probed for oligodendrocyte-associated proteins CNPase and myelin basic protein (MBP). Primary neural stem cells were treated with 24-hydroxycholesterol and 25-hydroxycholesterol at 1 μm and 0.5 μm for five days, then allowed to differentiate for 18 days. Protein lysates were probed for oligodendrocyte-associated proteins CNPase and myelin basic protein (MBP).

[3] = test system: Primary neural stem cells; test: in vitro screening method for oligodendrogenesis (CNPase+ cell count); format: cell-based, mice; conditions: exposed five days, differentiated 15-18 days; compared to media control
Text: Primary neural stem cells generated from mice were screened for oligodendrogenic potential after treatment with 20HC, 22HC, 24HC, 25HC, and 27HC. Neural stem cells in 8-well chamber slides were exposed to the indicated oxysterol for five days, and then allowed to differentiate for 15-18 days. Following differentiation, cells were fixed and stained for oligodendrocyte markers CNPase and myelin basic protein (MBP) (FIG. 6A). Stained cells were randomly sampled with a 40× objective, using Stereo Investigator software to eliminate bias, while quantifying the number of oligodendrocytes. Each condition was sampled at 10-12 computer selected sites. Images were used to count the number of nucleated CNPase+ cells per high power field (HPF).

[4] = target: smoothened (SMO) (Homo sapiens, UniProt Q99835); conditions: fibroblast cell culture systems; recent studies; cited from earlier work
[5] = test system: NF-κB; test: NF-κB activation in LPS-treated primary splenic monocytes (western blot); format: cell-based, mice; conditions: 1 μm 20HC for 24 hours, then 500 ng/mL LPS
Method: FIG. 7 is a Western blot showing the 20HC inhibition of NFκB pathway in primary splenic monocytes. Primary monocytes were exposed to media, 20HC (24 hour)+LPS (500 ng/ml), or LPS alone for 4 hours. 20HC prevented IκB degradation and p65 phosphorylation in LPS treated cells.
Splenocytes where harvested from postnatal day 12 mice. Monocytes were negatively selected using anti-CD3, CD19 magnetic beads. Cells were treated with vehicle control (DMSO) or 1 μm 20HC for 24 hours. After exposure to 20HC, monocytes were treated with 500 ng/mL of lipopolysaccharide (LPS) to activate the TLR4 receptor and activate NF-κB. Compared to control cells, LPS-treated cells degraded I-κB and phosphorylated p65 consistent with NF-κB activation (FIG. 7). I-κB degradation and phosphorylation of p65 was blocked in 20HC-treated monocytes.

[6] = test system: EAE induced with MOG35-55 peptide in C57BL/6J mice; test: experimental allergic encephalitis (EAE) mouse model; format: in vivo
Method: EAE was induced using myelin oligodendrocyte glycoprotein (MOG35-55) peptide using standard approaches (see, e.g., Bittner et al., J. Vis. Exp., 86: 51275 (2014); and Miller et al., Curr Protoc Immunol., Unit-15.1 (2007)) in 15 wild-type 8 week old C57BL/6J mice. TH17 T cell populations are pathogenic in the EAE model and have been implicated in multiple sclerosis (MS). Seven mice (3 male, 4 female) proceeded without further intervention while 8 mice (3 female and 5 male) were given daily 125 μL subcutaneous injections of 20HC resuspended in corn oil (10 mg/mL) two days prior to EAE induction and through day 14, just prior to peak clinical severity. Mice were scored daily for the development of ascending paralysis that is indicative of the development of EAE. In vivo treatment of mice with 20HC (50 mg/kg/day) disrupted the development of MS-like symptoms in the EAE model, as shown in FIGS. 9A and 9B.

[7] = test system: perinatal white matter injury in neonatal mice; test: mouse model of perinatal white matter injury (simulated bowel perforation and sepsis); format: in vivo
Method: Perinatal bowel perforation is a common complication of premature birth and is strongly linked to myelin injury and cerebral palsy. A mouse model of perinatal white matter injury was developed. The model simulates a perinatal bowel perforation and sepsis by injection of donor cecal contents into the peritoneal cavity of neonatal mice on postnatal day 5. Using this model, the efficacy of 25-hydroxycholesterol in reversing white matter injury was tested. […] Breast-milk associated 25-HC reversed diffuse white matter injury. The cells were stained with oligodendrocyte marker CC1. 40× high power fields (PHF) were imaged.

Sequence of smoothened (SMO) (Q99835 28-787): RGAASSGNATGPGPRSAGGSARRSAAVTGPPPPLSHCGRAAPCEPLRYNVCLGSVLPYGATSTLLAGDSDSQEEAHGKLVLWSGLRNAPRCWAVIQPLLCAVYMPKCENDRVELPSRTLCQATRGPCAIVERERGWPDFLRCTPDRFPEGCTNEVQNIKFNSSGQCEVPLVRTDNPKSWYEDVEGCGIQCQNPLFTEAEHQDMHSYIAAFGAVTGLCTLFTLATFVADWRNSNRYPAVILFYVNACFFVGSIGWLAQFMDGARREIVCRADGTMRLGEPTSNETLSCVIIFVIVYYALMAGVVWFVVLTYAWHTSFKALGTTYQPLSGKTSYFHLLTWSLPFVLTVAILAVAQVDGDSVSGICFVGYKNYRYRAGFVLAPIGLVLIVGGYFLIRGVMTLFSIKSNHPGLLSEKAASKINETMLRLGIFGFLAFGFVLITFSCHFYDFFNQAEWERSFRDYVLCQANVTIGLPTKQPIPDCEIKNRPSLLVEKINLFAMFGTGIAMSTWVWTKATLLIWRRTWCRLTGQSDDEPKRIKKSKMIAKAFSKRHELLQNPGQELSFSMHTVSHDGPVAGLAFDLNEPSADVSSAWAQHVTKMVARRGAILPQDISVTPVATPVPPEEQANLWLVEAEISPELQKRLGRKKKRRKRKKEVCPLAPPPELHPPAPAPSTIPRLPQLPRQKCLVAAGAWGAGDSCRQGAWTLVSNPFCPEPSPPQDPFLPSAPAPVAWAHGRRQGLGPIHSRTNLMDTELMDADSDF

SMILES: CC(C)C(O)CC[C@@H](C)[C@H]1CC[C@H]2[C@@H]3CC=C4C[C@@H](O)CC[C@]4(C)[C@H]3CC[C@]12C (stereo partly drawn) [24HC, 24-hydroxycholesterol]
- cells polarized into the TH17 population ([1]; 5 days culture): 2.1%
- TH17 polarization (in words, FIG. 8) [1]: decrease
- expression of oligodendrocyte-associated proteins CNPase and MBP [2]: induced expression
- number of oligodendrocytes (nucleated CNPase+ cells per high power field) [3]: increased number

SMILES: CC(C)CCC[C@](C)(O)[C@H]1CC[C@H]2[C@@H]3CC=C4C[C@@H](O)CC[C@]4(C)[C@H]3CC[C@@]21C [20HC, 20α-Hydroxycholesterol]
- activation of the SHH pathway via direct binding to smoothened (SMO) [4]: activate
- cells polarized into the TH17 population ([1]; 5 days culture): 2.2%
- TH17 polarization (in words, FIG. 8) [1]: decrease
- number of oligodendrocytes (nucleated CNPase+ cells per high power field) [3]: increased number
- I-κB degradation [5]: blocked; also recorded: prevented
- phosphorylation of p65 [5]: blocked; also recorded: prevented
- development of MS-like symptoms ([6]; 50 mg/kg/day subcutaneous, from two days prior to EAE induction through day 14): disrupted
- EAE clinical score ([6]; compared to control mice over 46 days, p≤0.05): attenuation

SMILES: O=C(O)Cc1cccc(OCCCN(Cc2cccc(C(F)(F)F)c2Cl)CC(c2ccccc2)c2ccccc2)c1 [GW3965, reference compound]
- cells polarized into the TH17 population ([1]; 5 days culture): 2.6%

SMILES: CC(C)CCC(O)[C@@H](C)[C@H]1CC[C@H]2[C@@H]3CC=C4C[C@@H](O)CC[C@]4(C)[C@H]3CC[C@]12C (stereo partly drawn) [22HC, 22-hydroxycholesterol]
- number of oligodendrocytes (nucleated CNPase+ cells per high power field) [3]: increased number

SMILES: CC(C)CC[C@@H](O)[C@@H](C)[C@H]1CC[C@H]2[C@@H]3CC=C4C[C@@H](O)CC[C@]4(C)[C@H]3CC[C@]12C [22α-hydroxycholesterol]
- activation of the SHH pathway via direct binding to smoothened (SMO) [4]: activate

SMILES: C[C@H](CCCC(C)(C)O)[C@H]1CC[C@H]2[C@@H]3CC=C4C[C@@H](O)CC[C@]4(C)[C@H]3CC[C@]12C [25HC, 25-hydroxycholesterol]
- cells polarized into the TH17 population ([1]; higher doses): 2.7%
- cells polarized into the TH17 population ([1]; low doses): 23.6%
- TH17 polarization (in words, FIG. 8) ([1]; low doses): promote
- expression of oligodendrocyte-associated proteins CNPase and MBP [2]: induced expression
- number of oligodendrocytes (nucleated CNPase+ cells per high power field) [3]: increased number
- myelin integrity (fluoromyelin staining) ([7]; 100 mg/kg/day for five days, compared to septic injured mice that received vehicle control): improved myelin integrity
- diffuse white matter injury ([7]; septic injured neonatal mice): reversed
- numbers of mature oligodendrocytes (CC1+Olig2+) ([7]; stereology, compared to septic injured mice, p<0.0001): significantly higher

SMILES: C[C@@H](CO)CCC[C@@H](C)[C@H]1CC[C@H]2[C@@H]3CC=C4C[C@@H](O)CC[C@]4(C)[C@H]3CC[C@]12C [27HC, 27-hydroxycholesterol]
- number of oligodendrocytes (nucleated CNPase+ cells per high power field) [3]: did not increase
